# Laboratory results taken from the supplement of paper PMC10307832.
# Key:
# Assay in all cases: relative viability (nuclei count vs DMSO), 5 days (fraction); higher = more cells survive
# Fedratinib + Crizotinib = compound: Cc1cnc(Nc2ccc(OCCN3CCCC3)cc2)nc1Nc1cccc(S(=O)(=O)NC(C)(C)C)c1 [Fedratinib] + C[C@@H](Oc1cc(-c2cnn(C3CCNCC3)c2)cnc1N)c1c(Cl)ccc(F)c1Cl [Crizotinib] (partner 1 µM)
# How it was run: (§1)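 Values are medians from duplicate plates. Each reflects relative viability, defined as the nuclei count of treated wells over that of vehicle wells. Lung cancer cell lines in 1536-well plates were pin-tool dosed one day after seeding with one drug alone or with a fixed anchor-drug dose plus five library-drug doses (not always all listed) in √10 steps, then fixed, stained and imaged at 4× after 5 days.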
# Fedratinib + Decitabine = compound: Cc1cnc(Nc2ccc(OCCN3CCCC3)cc2)nc1Nc1cccc(S(=O)(=O)NC(C)(C)C)c1 [Fedratinib] + Nc1ncn([C@H]2C[C@H](O)[C@@H](CO)O2)c(=O)n1 [Decitabine] (partner 2 µM)
# How it was run: as §1
# GW-2580 + Palbociclib = compound: COC1=CC=C(C=C1)COC2=C(C=C(C=C2)CC3=CN=C(N=C3N)N)OC [GW-2580] + CC(=O)c1c(C)c2cnc(Nc3ccc(N4CCNCC4)cn3)nc2n(C2CCCC2)c1=O [Palbociclib] (partner 0.5 µM)
# How it was run: as §1
# GW-2580 + Bortezomib = compound: COC1=CC=C(C=C1)COC2=C(C=C(C=C2)CC3=CN=C(N=C3N)N)OC [GW-2580] + CC(C)C[C@H](NC(=O)[C@H](Cc1ccccc1)NC(=O)c1cnccn1)B(O)O [Bortezomib] (partner 0.002 µM)
# How it was run: as §1
# GW-2580 + AZD7762 = compound: COC1=CC=C(C=C1)COC2=C(C=C(C=C2)CC3=CN=C(N=C3N)N)OC [GW-2580] + NC(=O)Nc1cc(-c2cccc(F)c2)sc1C(=O)N[C@H]1CCCNC1 [AZD7762] (partner 0.2 µM)
# How it was run: as §1
Cell Line,relative viability (Fedratinib + Crizotinib; first compound 0.1 µM),relative viability (Fedratinib + Crizotinib; first compound 0.3162 µM),relative viability (Fedratinib + Crizotinib; first compound 1 µM),relative viability (Fedratinib + Decitabine; first compound 0.1 µM),relative viability (Fedratinib + Decitabine; first compound 0.3162 µM),relative viability (Fedratinib + Decitabine; first compound 1 µM),relative viability (GW-2580 + Palbociclib; first compound 0.08 µM),relative viability (GW-2580 + Palbociclib; first compound 0.8 µM),relative viability (GW-2580 + Palbociclib; first compound 2.53 µM),relative viability (GW-2580 + Palbociclib; first compound 8 µM),relative viability (GW-2580 + Bortezomib; first compound 0.08 µM),relative viability (GW-2580 + Bortezomib; first compound 0.8 µM),relative viability (GW-2580 + Bortezomib; first compound 8 µM),relative viability (GW-2580 + AZD7762; first compound 0.08 µM),relative viability (GW-2580 + AZD7762; first compound 0.8 µM),relative viability (GW-2580 + AZD7762; first compound 2.53 µM),relative viability (GW-2580 + AZD7762; first compound 8 µM),relative viability (GW-2580 + Bortezomib; first compound 2.53 µM)
NCI-H1993,0.747,0.773,0.848,0.473,0.725,0.704,0.744,0.748,0.563,0.647,1.27,1.33,0.995,0.851,0.772,0.687,0.868,–
NCI-H322M,0.949,0.877,0.966,0.657,0.749,0.64,0.5,0.453,0.476,0.29,1.29,1.4,1.43,0.508,0.706,0.598,0.531,1.31
NCI-H838,0.669,0.847,0.745,0.444,0.454,0.431,0.228,0.25,0.2,0.251,0.943,0.831,1.02,0.976,0.998,0.92,0.986,0.691
HARA,1.16,1.04,1.05,0.485,0.551,0.427,0.238,0.24,0.265,0.291,1.2,1.17,1.31,0.302,0.252,0.294,0.221,1.33
NCI-H2087,0.735,0.879,0.831,0.206,0.242,0.219,0.196,0.274,0.216,0.252,0.966,1.16,0.872,1.33,1.4,1.12,0.937,0.79
NCI-H1437,0.999,0.883,0.922,0.603,0.583,0.6,0.307,0.338,0.297,0.262,0.654,0.569,0.516,1.11,1.09,1.04,0.995,0.518
NCI-H1792,1.26,0.972,0.854,0.429,0.438,0.504,0.96,0.997,–,0.678,0.926,1.07,1.1,0.681,0.712,0.63,0.697,0.734
ChaGo-K-1,0.851,1.06,0.975,0.488,0.513,0.544,0.927,0.943,0.88,0.895,0.996,1.09,1,0.933,0.887,0.839,0.878,0.989
NCI-H650,–,0.682,0.668,0.349,0.372,0.34,0.314,0.373,0.28,0.317,0.807,1.06,0.845,0.884,1.28,0.869,0.982,0.658
201T,1.01,1.04,0.99,0.78,0.855,0.877,0.388,0.4,0.375,0.351,1.15,1.12,1.14,0.575,0.579,0.583,0.627,1.11
HCC-44,0.797,0.756,0.85,0.929,0.947,0.949,0.98,1.02,0.961,0.967,0.95,0.997,0.914,0.994,1,1.03,0.999,0.822
H3255,0.873,0.805,0.723,0.607,0.685,0.507,0.308,0.3,0.317,0.279,0.542,0.998,0.749,0.876,1.22,0.817,0.758,0.579
NCI-H647,1.06,1.09,0.584,0.581,0.327,0.372,0.384,0.398,0.41,0.317,1.1,0.994,1.09,0.567,0.621,0.326,0.405,0.756
NCI-H23,0.305,0.475,0.41,0.322,0.338,0.324,0.529,0.549,0.469,0.545,0.979,0.988,1.04,0.264,0.21,0.243,0.179,1.12
NCI-H460,0.47,0.767,0.812,0.556,0.495,0.232,0.147,0.339,0.146,0.248,1.29,1.27,1.19,0.595,0.714,0.383,0.492,1.03
EKVX,1.05,0.889,0.958,0.315,0.37,0.363,0.341,0.392,0.675,0.327,1.09,1.12,1.01,0.7,0.777,0.644,0.804,0.874
EPLC-272H,1,0.87,0.757,0.312,0.393,0.344,0.317,0.337,–,0.313,1.33,1.07,1.01,0.221,0.315,–,0.297,0.963
